Results: patent US20120095012A1, “TOLUIDINE SULFONAMIDES AND THEIR USE” (Elara Pharmaceuticals GmbH, priority 2008, published 2012)

What follows are molecules tested on MCF-7 human breast adenocarcinoma cells; HRE-bla HCT116 cell line (colorectal carcinoma) (assay: Cell proliferation assay (ATPlite luminescence)). Conditions: Homo sapiens, ATPlite readout, cell line not given.
Assay type: cell-based
Description: MCF-7 human breast adenocarcinoma cells were obtained from ATCC (LGC Promochem). The CellSensor® HRE-bla HCT116 cell line (colorectal carcinoma) was obtained from Invitrogen.
Cells were grown under humidified 95% air, 5% CO2 at 37° C. in Dulbecco's modified Eagle's medium (DMEM: MCF-7) or McCoy's 5A medium (HRE-bla HCT116) supplemented with 10% fetal bovine serum (FBS), 100 U/ml penicillin and 100 μg/ml streptomycin, 2 mM L-glutamine, and blasticidin at 5 μg/ml as a selection marker (for the HRE-bla HCT116 cell line only).
Cell proliferation experiments were carried out in 96-well tissue culture plates with seeding of 2000 cells/well in 100 μl of the relevant medium. Cells were subsequently incubated under the conditions mentioned for 24 h prior to addition of compounds.
To determine the degree of inhibition of cell proliferation, cells were treated with ATPlite solution according to the manufacturer's instructions (PerkinElmer, ATPlite 1-step Luminescence ATP Detection Assay System) and luciferase readout measured on an Envision HTS multilabel plate reader (PerkinElmer) in luminescence mode according to established protocols. Raw data were imported into an ActivityBase database (IDBS, ID Business Solutions) and EC50 values calculated using the IDBS program ActivityBase XE.
`COc1ccc(S(=O)(=O)Nc2cc(-c3ccc(C#N)cc3)ccc2C)cn1` [Example 4, 6-Methoxy-pyridine-3-sulfonic acid (4′-cyano-4-methyl-biphenyl-3-yl)-amide] was tested, and the EC50 was < 0.5 µM. In the case of `CCc1ccc(S(=O)(=O)Nc2cc(-c3ccc(C#N)cc3)ccc2C)s1` [Example 5, 5-Ethyl-thiophene-2-sulfonic acid (4′-cyano-4-methyl-biphenyl-3-yl)-amide], the EC50 is reported as < 0.5 µM. Work on `Cc1ccc(-c2ccc(C#N)s2)cc1NS(=O)(=O)c1ccco1` [Example 6, Furan-2-sulfonic acid [5-(5-cyano-thiophen-2-yl)-2-methyl-phenyl]-amide] yielded an EC50 of 1 to 10 µM. `Cc1ccc(-c2ccc(C#N)s2)cc1NS(=O)(=O)c1cccs1` [Example 9, N-(5-(5-cyanothiophen-2-yl)-2-methylphenyl)thiophene-2-sulfonamide] was tested, and the EC50 was < 0.5 µM. `Cc1ccc(-c2ccc(C#N)s2)cc1NS(=O)(=O)c1ccsc1` [Example 10, N-(5-(5-cyanothiophen-2-yl)-2-methylphenyl)thiophene-3-sulfonamide] gave an EC50 of 0.5 to 1 µM. In the case of `Cc1ccc(-c2ccc(C#N)s2)cc1NS(=O)(=O)c1ccc(Cl)s1` [Example 11, 5-chloro-N-(5-(5-cyanothiophen-2-yl)-2-methylphenyl)thiophene-2-sulfonamide], the EC50 is reported as 0.5 to 1 µM. For `Cc1ccc(-c2ccc(C#N)s2)cc1NS(=O)(=O)c1cn(C)cn1` [Example 12, N-(5-(5-cyanothiophen-2-yl)-2-methylphenyl)-1-methyl-1H-imidazole-4-sulfonamide], the EC50 was 1 to 10 µM. In the case of `Cc1cc(S(=O)(=O)Nc2cc(-c3ccc(C#N)s3)ccc2C)c(C)s1` [Example 13, N-(5-(5-cyanothiophen-2-yl)-2-methylphenyl)-2,5-dimethylthiophene-3-sulfonamide], the EC50 is reported as 1 to 10 µM. Work on `Cc1ccc(-c2ccc(C#N)s2)cc1NS(=O)(=O)c1cccnc1` [Example 14, N-(5-(5-cyanothiophen-2-yl)-2-methylphenyl)pyridine-3-sulfonamide] yielded an EC50 of 1 to 10 µM. `Cc1ccc(-c2ccc(C#N)s2)cc1NS(=O)(=O)c1cn(C)c(C)n1` [Example 15, N-(5-(5-cyanothiophen-2-yl)-2-methylphenyl)-1,2-dimethyl-1H-imidazole-4-sulfonamide] gave an EC50 of 1 to 10 µM. For `Cc1ccc(-c2ccc(C#N)s2)cc1NS(=O)(=O)c1ccc(C(F)(F)F)cn1` [Example 16, N-(5-(5-cyanothiophen-2-yl)-2-methylphenyl)-5-(trifluoromethyl)pyridine-2-sulfonamide], the EC50 was 1 to 10 µM. With `Cc1ccc(-c2ccc(C#N)s2)cc1NS(=O)(=O)c1c(C)noc1C` [Example 17, N-(5-(5-cyanothiophen-2-yl)-2-methylphenyl)-3,5-dimethylisoxazole-4-sulfonamide] the EC50 was 1 to 10 µM. `Cc1cc(S(=O)(=O)Nc2cc(-c3ccc(C#N)s3)ccc2C)c(C(F)(F)F)o1` [Example 19, N-(5-(5-cyanothiophen-2-yl)-2-methylphenyl)-5-methyl-2-(trifluoromethyl)furan-3-sulfonamide] was tested, and the EC50 was 1 to 10 µM. `Cc1ccc(-c2ccc(C#N)cc2)cc1NS(=O)(=O)c1sccc1C` [Example 20, N-(4′-cyano-4-methylbiphenyl-3-yl)-3-methylthiophene-2-sulfonamide] showed an EC50 of 1 to 10 µM. For `Cc1ccc(-c2ccc(C#N)cc2)cc1NS(=O)(=O)c1ccc(C#N)nc1` [Example 21, 6-cyano-N-(4′-cyano-4-methylbiphenyl-3-yl)pyridine-3-sulfonamide], the EC50 was 1 to 10 µM. Work on `Cc1cccc(S(=O)(=O)Nc2cc(-c3ccc(C#N)s3)ccc2C)n1` [Example 22, N-(5-(5-cyanothiophen-2-yl)-2-methylphenyl)-6-methylpyridine-2-sulfonamide] yielded an EC50 of 1 to 10 µM. `Cc1ccc(S(=O)(=O)Nc2cc(-c3ccc(C#N)s3)ccc2C)nc1` [Example 25, N-(5-(5-cyanothiophen-2-yl)-2-methylphenyl)-5-methylpyridine-2-sulfonamide] was tested, and the EC50 was < 0.5 µM. For `Cc1ccc(-c2ccc(C#N)cc2)cc1NS(=O)(=O)c1ccc(Cl)nc1` [Example 26, 6-chloro-N-(4′-cyano-4-methylbiphenyl-3-yl)pyridine-3-sulfonamide], the EC50 was < 0.5 µM.
